Data on one substance can be found in publication PMC8280143, “A novel dephosphorylation targeting chimera selectively promoting tau removal in tauopathies” (Signal Transduction and Targeted Therapy, 2021).

“Also recorded” adds a separate entry of the source.

The test system of series [1] is human tau N-terminal 1–368 fragment (hTau-N368). As to the kind of experiment: Hippocampal phosphorylated and total tau in dox-treated Tau368 mice. The class given is in vivo, mouse. To be noted: 5 mM, i.c.v.
Series [2] concerns dentate granular cells of Tau368 mice. As to the kind of experiment: Sparse labeling: dendritic spine density and mossy fiber puncta area. It is filed as in vivo, mouse. The procedure:
(§1) For 2-month male C57BL/6 mice, 10 mM FITC-labeled or unlabeled-DEPTAC were directly injected through the tail vein or lateral ventricle for the evaluation of BBB-penetrability. For 9-month 3×Tg AD mice or Tau368 (20–30 g body weight), unlabeled-DEPTAC (5 mM, 1 μL for each time) was delivered for once into the lateral ventricle through direct stereotaxic injection, or repeatedly administrated through guiding cannulas (RWD, Shenzhen, China) implanted into the lateral ventricle once every 3 days for a consecutive month to test its dephosphorylation efficiency. Mice were restricted in a custom designed device and stayed awake during drug administration, and sacrificed at 24 h post the single or last DEPTAC administration.
A total volume of 0.3 μL mixture of AAV-CaMKIIα-Cre (5.21E+07) and AAV-EF1α-DIO-mCherry (3.24E+12) (1:1 vol/vol) was stereotaxically injected into the dDG of Tau368 mice 1 month following the beginning of dox or normal drinking water administration. Dox was stopped 1-month post AAVs injection, and DEPTAC were delivered through lateral ventricle for a consecutive month. Behavioral tests were performed after the DEPTAC administration, and mice were killed after behavioral tests. Hippocampal sections of 60 μm were obtained, and fluorescent images were taken by a two-photon laser-scanning confocal microscope (LSM710, Zeiss). The dendrite complexity of granular cells in the dorsal dentate gyrus was evaluated by Sholl analysis using Simple Neurite Tracer plugin and ImageJ (Fiji) software. Dendrite spine density and the averaged area of mossy fiber punctas were evaluated using ImageJ by an experimenter blinded from mice groupings. It should be noted that the fluorescence-labeled mossy fibers assembled densely in the CA3 subset, the main target area of mossy fiber axon terminals, making it difficult to accurately measure the puncta areas (data not shown). Therefore, we chose the hilus of DG subset for the measurement, which we believe should be also valid to indicate the axon plasticity of DG granular cells.

Another series concerns PP2A-Bα (PPP2R1A). As to the kind of experiment: Fluorescence polarization competing assay, PP2A-Bα. The class given is binding, human. To be noted: 2.5 μM PP2A-Bα, 0.1 μM FITC-labeled DEPTAC; 37 °C, 30 min. The procedure: (§2) Purified human tau and PP2A-Bα (PPP2R1A) were obtained from AtaGenix (Wuhan, China), and concentrated using ultrafiltration tubes (Beyotime). In basic binding assays, tau or PP2A-Bα was aliquoted into serial dilutions with a buffer containing 20 mM Tris-HCl, 150 mM NaCl, and 0.5 mM 1,4-Dithiothreitol (pH 7.4), and incubated with 0.1 μM FITC-labeled DEPTAC, FITC-labeled control peptide and FITC (9:1 vol/vol), respectively, in a black 384-well plates (Corning) under 37 °C for 30 min. In competition binding assays, a mixture of 2.5 μM tau or PP2A-Bα and 0.1 μM FITC-labeled DEPTAC were incubated with increasing amounts of unlabeled-DEPTAC under 37 °C for 30 min. Fluorescence intensity was measured by a Biotek Synergy 2 microplate reader with the wavelengths of 480 nm (60) (Ex)/560 nm (40) (Em). The polarization measurements were corrected for background contributions to the measured intensity by subtracting the parallel and perpendicular intensity readings by the vehicle-only wells from the intensity readings for each data point. Fluorescence polarization (P) was calculated by the formula P = (I║ − I┴) / (I║ + I┴), where I║ was the intensity of emitted light polarized parallel to the excitation light, and I┴ was the intensity of emitted light polarized perpendicular to the excitation light.
For orientation: In fluorescence polarisation assays a small probe gives low polarisation when free and higher when bound to something large.

In a further series the test system is HEK293(hTau) cells. The series is described as follows: CCK8 cell viability assay. The class given is cell-based, human. To be noted: to 200 μM, 24 h; normalized to 0-μM group; F(4, 25) = 1.47, P = 0.24. The procedure: HEK293 cells with stable expression of wild-type full-length human tau (term as HEK293(hTau) cells), were cultured in DMEM (Hyclone, SH30022.01) containing 10% fetal bovine serum (Biological Industries, 04–001-1ACS) and […] G418 (Thermo Fisher Scientific, 10,131,027) under 5% CO2, 37 °C.
HEK293(hTau) cells were administrated with increasing concentration of DEPTAC for 24 h. About 5000 cells were dispensed into each well of a 96-well plate pre-incubated in a humidified incubator under 37 °C, 5% CO2. A total volume of 10 μL CCK-8 solution was delivered into each well of the plate. The plate was incubated for 1–4 h, and the light absorbance was measured at 450 nm using a microplate reader (BioTek-Synergy2). Cell viability (V) was evaluated by the formula: V = (Ad – A0) / (Av – A0) × 100%, where Ad and Av was the absorbance of DEPTAC-treated and vehicle-treated cells, respectively. A0 was the absorbance of wells with only culture medium and CCK8.
Background: Tetrazolium dyes change colour on reduction, which living cells bring about.

The next series concerns human tau. The series is described as follows: Fluorescence polarization competing assay, tau. The class given is binding. To be noted: 2.5 μM tau, 0.1 μM FITC-labeled DEPTAC; 37 °C, 30 min. The procedure: as §2
In the next series the test system is pS396-tau. As to the kind of experiment: pS396-tau immunostaining in the DG of Tau368 mice. The class given is in vivo, mouse. To be noted: DEPTAC for a consecutive month after stopping dox; **p < 0.01, n = 4–5 mice. The protocol: as §1
Cultured neurons were fixed with 4% paraformaldehyde for 15 min. For animal experiments, mice were anesthetized with 1% pentobarbital sodium and intracardially perfused with normal saline followed by 4% paraformaldehyde (in 0.1 M phosphate buffer, pH 7.4). Mice brains were removed, post-fixed in 4% PFA for 12 h, and then cryoprotected in 20% and 30% sucrose solutions in turn. Fifty micrometer brain sections were sliced using a cryostat microtome (Leica). […]

Another series concerns neurons. As to the kind of experiment: Neuron penetrability in vivo. Details: species or system mouse. To be noted: Supplementary Fig. S1a; 10 mM FITC-labeled or unlabeled-DEPTAC, C57BL/6 mice. The protocol: as §1
[3] abbreviates: Tau368 mice without dox, n = 3 mice.
Setting [4] is: dox-treated Tau368 mice, DEPTAC 1 month after stopping dox, *p < 0.05, n = 5 mice.

Consider “(1) YQQYQDATADEQG, originates from the porcine β-tubulin 422–434 for recognizing and binding tau proteins.[5],[6] (2) GSGS, a linker for increasing the flexibility of the peptide.[15] (3) KKVAVVRTPPKSP, for recruiting PP2A-Bα,[16] and (4) RRRRRRRR [DEPTAC, DEPhosphorylation TArgeting Chimera; 38 amino acid residues, C185H314N72O56]”, for which the “time post injection of tau reduction” value in series [1] was in the range of 12 to 72 h. For the same substance, the hippocampal total tau result in series [1] (for a consecutive month / for once, 12–72 h post injection, n = 3–4) is “effective in reducing; also recorded: reduced phosphorylated and total tau prominently”. In series [2] (setting [3]), the “averaged mossy fiber puncta area, without dox” value is given as “only limited effects” and the “dendritic spine density, without dox” value was “only limited effects”. In series [2] (setting [4]), the “averaged area of mossy fiber puncta” value is “increased; also recorded: enlarged”, the “mushroom-like dendritic spine density” value is “significantly increased” and the “total dendritic spine density” value is given as “significantly increased”. Moreover, in the series with PP2A-Bα (PPP2R1A), the “reversal of FITC-DEPTAC/PP2A-Bα polarization by increased amount of unlabeled-DEPTAC” value is “both were reversed”. For the same substance, the “cytotoxicity (CCK8)” value in the series on HEK293(hTau) cells is recorded as “No cytotoxicity”. The “reversal of FITC-DEPTAC/tau polarization by increased amount of unlabeled-DEPTAC” value with human tau is given as “both were reversed”. In addition, in the series with pS396-tau, the “level of pS396-tau immunostaining in the DG” value was “ameliorated”. Moreover, the “neuron penetrability in vivo” value in the series with neurons is recorded as “high neuron penetrability”.
